# Target: Lysine-specific histone demethylase 1A (Homo sapiens, UniProt O60341)
# Experiment: LSD1 Inhibition Assay
# Text: The kinetic inhibition parameters of LSD1 demethylase inhibition were obtained using the peroxidase-coupled reaction method.
row,Compound,IC50 [µM]
1,COc1cccc(COc2c(F)cc(F)cc2C2CC2N)c1 (centres undefined) [S2206],> 30
2,NC1CC1c1cc(F)ccc1-c1ccccc1 (centres undefined) [S1310],> 50
3,CC(C)COc1ccc(C2CC2N)c(OCC(C)C)c1 (centres undefined) [S1602],> 30
4,CC(C)COc1ccc(Cl)cc1C1CC1N (centres undefined),14.9
5,NC1CC1c1ccc(OCC2CCCCC2)cc1OCC1CCCCC1 (centres undefined) [S1603],> 30
6,NCc1cccc(COc2c(F)cc(F)cc2C2CC2N)c1 (centres undefined) [S2107],4.1
7,NC1CC1c1cc(Cl)ccc1OCc1ccccc1 (centres undefined) [S1401],> 30
8,CC(C)COc1c(Cl)cc(Cl)cc1C1CC1N (centres undefined) [S1502],> 50
9,NC1CC1c1ccc(OCc2ccccc2)cc1OCc1ccccc1 (centres undefined) [S1601],> 30

# Reference: BindingDB's records for doi:10.1021/bi100299r (Riken Systems and Structural Biology Center, 2010)
